Conditions: Liquid, isochoric method

CCn1cc[n+](C)c1.N#CN=C=[N-] [1-ethyl-3-methylimidazolium dicyanamide]
Conditions	mass density [kg/m3]
256.82 K, 20357 kPa	1142.71
256.92 K, 29975 kPa	1145.41
256.97 K, 10611 kPa	1139.49
257.12 K, 1250.8 kPa	1136.35
261.97 K, 9950.2 kPa	1135.94
262.11 K, 19886 kPa	1139.04
262.33 K, 39980 kPa	1144.93
262.46 K, 619.6 kPa	1132.49
267.67 K, 20023 kPa	1135.45
267.67 K, 39943 kPa	1141.75
267.7 K, 9753.2 kPa	1132.18
267.7 K, 9894 kPa	1132.04
267.7 K, 29879 kPa	1138.56
267.7 K, 29968 kPa	1138.56
267.7 K, 49706 kPa	1144.45
267.71 K, 20196 kPa	1135.44
267.71 K, 40066 kPa	1141.75
267.71 K, 49662 kPa	1144.45
268.06 K, 649.7 kPa	1128.69
273.25 K, 29805 kPa	1134.96
273.34 K, 49967 kPa	1141.26
273.4 K, 39951 kPa	1138.06
273.49 K, 19943 kPa	1131.55
273.51 K, 10041 kPa	1128.22
273.55 K, 60051 kPa	1143.95
274.21 K, 775.7 kPa	1124.56
278.57 K, 59071 kPa	1140.8
279.2 K, 40050 kPa	1134.45
279.22 K, 50024 kPa	1137.55
279.41 K, 30010 kPa	1131.04
279.59 K, 10349 kPa	1124.23
279.65 K, 9960.6 kPa	1124.1
279.66 K, 20569 kPa	1127.7
280.01 K, 1016.8 kPa	1120.72
280.04 K, 1077.6 kPa	1120.72
285.08 K, 50002 kPa	1133.94
285.13 K, 60064 kPa	1137.04
285.39 K, 9816.5 kPa	1120.27
285.42 K, 40116 kPa	1130.53
285.43 K, 19560 kPa	1123.61
285.44 K, 19459 kPa	1123.61
285.45 K, 9814.9 kPa	1120.27
285.5 K, 20153 kPa	1123.73
285.51 K, 30235 kPa	1127.2
286.62 K, 2009 kPa	1116.68
291.09 K, 59995 kPa	1133.42
291.45 K, 50059 kPa	1130.01
291.47 K, 9754 kPa	1116.28
291.47 K, 50178 kPa	1130.13
291.51 K, 40153 kPa	1126.69
291.61 K, 19904 kPa	1119.75
291.79 K, 29944 kPa	1123.08
297.62 K, 60101 kPa	1129.48
297.75 K, 50232 kPa	1126.16
297.91 K, 20011 kPa	1115.75
297.98 K, 30141 kPa	1119.22
298.08 K, 1020.2 kPa	1108.78
298.16 K, 103.4 kPa	1108.35
298.16 K, 40265 kPa	1122.54
303.94 K, 60074 kPa	1125.65
304.2 K, 39942 kPa	1118.71
304.23 K, 49724 kPa	1122.03
304.28 K, 29918 kPa	1115.22
304.34 K, 10634 kPa	1108.27
310.52 K, 20049 kPa	1107.77
310.57 K, 59616 kPa	1121.51
310.65 K, 49941 kPa	1118.17
310.81 K, 40003 kPa	1114.68
311.24 K, 1092 kPa	1100.23
317.17 K, 9765 kPa	1099.76
317.19 K, 29905 kPa	1107.23
317.23 K, 59899 kPa	1117.62
317.44 K, 50073 kPa	1114.13
324.19 K, 60082 kPa	1113.57
324.28 K, 20103 kPa	1099.19
325.02 K, 1127.1 kPa	1091.44
331.28 K, 30008 kPa	1098.63
331.29 K, 9862.4 kPa	1090.95
337.92 K, 60055 kPa	1105.54
338.39 K, 40023 kPa	1098.06
338.74 K, 20149 kPa	1090.36
339.67 K, 1074 kPa	1082.2
345.69 K, 50073 kPa	1097.48
346.21 K, 30275 kPa	1089.77
346.22 K, 9873.1 kPa	1081.75

From the NIST ThermoML archive (doi:10.1021/je201283n)
